Assay [1] relates to Oryza sativa. The experiment in a line: Induction of disease resistant in three-leaf stage of Oryza sativa (rice) plant against Xanthomonas oryzae pv. oryzae-induced leaf blight at 0.05 to 5 mg/pot after 7 days. It counts as functional, organism-based.
The subject of assay [2] is Oryza sativa. The experiment in a line: Induction of PBZ1 gene expression in three-leaf stage of Oryza sativa (rice) plant leaf after 5 days by Northern blot analysis. The assay is classed as functional, organism-based.
In assay [3] the test system is Oryza sativa. The experiment in a line: Induction of disease resistant in three-leaf stage of Oryza sativa (rice) plant against Xanthomonas oryzae pv. oryzae-induced leaf blight at 5 mg/pot after 7 days. The assay is classed as functional.
The subject of assay [4] is Oryza sativa. Put plainly: Induction of disease resistant in three-leaf stage of Oryza sativa (rice) plant against Xanthomonas oryzae pv. oryzae-induced leaf blight after 7 days. It counts as functional, organism-based.
The test system of assay [5] is Oryza sativa. Put plainly: Induction of disease resistant in three-leaf stage of Oryza sativa (rice) plant against Xanthomonas oryzae pv. oryzae-induced leaf blight at 0.05 to 0.5 mg/pot after 7 days. It counts as functional, organism-based.
Assay [6] has as its system Xanthomonas oryzae pv. oryzae. The experiment in a line: Antibacterial activity against Xanthomonas oryzae pv. oryzae up to 1 mg/ml after 48 hr. It counts as functional, organism-based.

Activity calls are given as the source filed them. The rule behind the calls is not given here.

For the molecule `C=CCOC1=NS(=O)(=O)c2ccccc21`, the result in the assay on Oryza sativa [1] was Active. In addition, the Activity result in the assay with Oryza sativa [2] was “Dose-dependent effect”.

On to `CSC(=O)c1cccc2nnsc12`, for which the result in the assay on Oryza sativa [1] was Active. Further, the Activity result with Oryza sativa [2] was “Dose-dependent effect”.

For `N#CCNC(=O)c1ccnc(Cl)c1`, the Activity entry in the assay on Oryza sativa [2] was “Dose-dependent effect”.

For the molecule `Cn1nc(Cl)cc1C(=O)O` [3-CHLORO-1-METHYL-1H-PYRAZOLE-5-CARBOXYLIC ACID], the Activity in the assay with Oryza sativa [3] is 99.5%; with Oryza sativa [4], “Dose-dependent effect”; in the assay with Oryza sativa [2], “Dose-dependent effect”. The outcome with Oryza sativa [5] was Active. The outcome in assay [6] was inactive.

Values taken from ChEMBL document CHEMBL3045433, “Induction of Resistance against Rice Bacterial Leaf Blight by 3-Chloro-1-methyl-1H-pyrazole-5-carboxylic Acid” (2005).
